Results on three molecules are retold here after patent US10669290B2, “Beta-lactamase inhibitors” (priority 2012, dated 2020).

For test [1], the system named is P. aerug. Ps296 VIM-2. The test can be described thus: Broth microdilution MIC, P. aeruginosa Ps296. It counts as cell-based. The following applies: fixed meropenem 4 μg/mL, CAMHB, 16-20 hours 37° C. In outline: (§1)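 Strains grew 3-5 hours in CAMHB before use. Serial 2-fold compound dilutions (final 32 to 0.25 μg/mL) were overlaid with β-lactam at a constant 4 μg/ml, inoculated following CLSI, then incubated 16-20 h at 37° C before visual MIC determination.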

Test [2] deals with T1, SHV-5 (Klebsiella pneumoniae, UniProt P0A3M1).
T1 construct: made in house; host or cells: E. coli BL21 (DE3)
T1 sequence (P0A3M1 22-286): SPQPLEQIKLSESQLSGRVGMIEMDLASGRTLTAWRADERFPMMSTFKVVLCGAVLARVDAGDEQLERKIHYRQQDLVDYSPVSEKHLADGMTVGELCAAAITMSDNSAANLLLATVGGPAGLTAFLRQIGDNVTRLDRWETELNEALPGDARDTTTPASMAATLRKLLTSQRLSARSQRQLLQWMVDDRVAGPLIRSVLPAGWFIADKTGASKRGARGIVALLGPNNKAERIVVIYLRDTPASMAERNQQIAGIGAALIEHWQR
The test can be described thus: β-Lactamase inhibition, SHV-5 (cefotaxime substrate). The format is biochemical. As to the method:
(§2) For SHV-5, Kpc-2, p99AmpC and OXA-1 β-lactamases, E. coli BL21 (DE3) bacterial cells carrying expression plasmids (expressed as native untagged proteins) for the individual β-lactamases were grown in 1 L of Superbroth (Teknova Inc. Hollister, Calif.) supplemented with 100 μg/ml kanamycin selection and 1×5052 (0.5% glycerol, 0.05% glucose and 0.2% α-lactose) at 35° C. for 18-20 hours. Cells were harvested by centrifugation (4,000×g, 4° C., 20 min), resuspended in 50 ml of 10 mM HEPES pH 7.5 ( 1/20 of the initial volume). The cells were lysed by sonication (5 pulses of 45 seconds) at 45 W on ice. The lysates were clarified by centrifugation at 10,000×g for 40 minutes at 4° C. Samples were diluted 5-fold in 50 mM sodium acetate pH 5.0, stored overnight at 4° C., after which they were centrifuged at 10,000×g for 30 minutes to clarify, and filtered through 0.45 µm filters. The samples were loaded onto a 5 ml Capto S sepharose cation exchange column (GE Healthcare) pre-equilibrated with 50 mM sodium acetate pH 5.0. […] Active fractions were pooled concentrated, quantitated by BCA protein determination (Thermo Scientific, Rockford, Ill.), dialyzed into PBS and frozen at −80° C. in 20% glycerol until use.
(§3) An equal volume of diluted enzyme stock was added, and the plates were incubated at 37° C. for 15 min. […] Absorbance at 486 nm was immediately monitored for 10 min using a Biotek Powerwave XS2 microplate spectrophotometer using the GEN5 software package (Biotek Instruments, Winooski Vt.). In an analogous fashion, imipenem was used as substrate for Kpc-2 and Cefotaxime was used for SHV-5, while changes in absorbance upon hydrolysis of the β-lactam ring were monitored at 300 nm and 260 nm respectively in UV-transparent 96-well microtiter assay plates. Maximum rates of hydrolysis were compared to those in control wells (without inhibitors), and percentages of enzyme inhibition were calculated for each concentration of inhibitor. […]

The target of test [3] is T2, OXA-1 (Escherichia coli, UniProt P13661).
T2 construct: made in house; host or cells: E. coli BL21 (DE3)
T2 sequence (P13661 26-276): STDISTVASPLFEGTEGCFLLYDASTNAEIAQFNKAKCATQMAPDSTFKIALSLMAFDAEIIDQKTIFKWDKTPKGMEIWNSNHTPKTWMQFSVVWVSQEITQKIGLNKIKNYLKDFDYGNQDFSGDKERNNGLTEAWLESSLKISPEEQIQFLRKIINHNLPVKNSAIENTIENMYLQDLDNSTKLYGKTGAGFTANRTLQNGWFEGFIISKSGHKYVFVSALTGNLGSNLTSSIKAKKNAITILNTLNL
The experiment in a line: β-Lactamase inhibition, OXA-1 (nitrocefin substrate). The format is biochemical. As to the method:
as §2, §3

For test [4], the system named is K.P. A-1797 KPC-2 VIM-4. The experiment in a line: Broth microdilution MIC, K. pneumoniae A-1797. The format is cell-based. As to conditions: fixed meropenem 4 μg/mL, CAMHB, 16-20 hours 37° C. Background: Broth dilution looks for growth in wells or tubes with falling amounts of substance.
The subject of test [5] is E. cl 144200 p99 AmpC. The experiment in a line: Broth microdilution MIC, E. cloacae 144200. The format is cell-based. The following applies: fixed ceftazidime 4 μg/mL, CAMHB, 16-20 hours 37° C. In short, it runs like this: as §1
Test [6] concerns the target T3, p99 AmpC (Enterobacter cloacae, UniProt P05364).
T3 construct: made in house; host or cells: E. coli BL21 (DE3)
The experiment in a line: β-Lactamase inhibition, p99 AmpC (nitrocefin substrate). The format is biochemical. As to the method:
For SHV-5, Kpc-2, p99AmpC and OXA-1 β-lactamases, E. coli BL21 (DE3) bacterial cells carrying expression plasmids (expressed as native untagged proteins) for the individual β-lactamases were grown in 1 L of Superbroth (Teknova Inc. Hollister, Calif.) supplemented with 100 μg/ml kanamycin selection and 1×5052 (0.5% glycerol, 0.05% glucose and 0.2% α-lactose) at 35° C. for 18-20 hours. Cells were harvested by centrifugation (4,000×g, 4° C., 20 min), resuspended in 50 ml of 10 mM HEPES pH 7.5 ( 1/20 of the initial volume). The cells were lysed by sonication (5 pulses of 45 seconds) at 45 W on ice. The lysates were clarified by centrifugation at 10,000×g for 40 minutes at 4° C. Samples were diluted 5-fold in 50 mM sodium acetate pH 5.0, stored overnight at 4° C., after which they were centrifuged at 10,000×g for 30 minutes to clarify, and filtered through 0.45 µm filters. The samples were loaded onto a 5 ml Capto S sepharose cation exchange column (GE Healthcare) pre-equilibrated with 50 mM sodium acetate pH 5.0. The column was washed with 5 column volumes of 50 mM sodium acetate pH 5.0 to wash out unbound protein and a linear gradient of NaCl (0 to 500 mM) was used to elute the protein (over 16 CV) from the column. Fractions were assayed for β-lactamase activity using Centa (Calbiochem, Gibbstown, N.J.) or Nitrocefin (EMD Millipore chemicals, Darmstadt, Germany) as a reporter β-lactamase substrate for activity in the isolated fractions. Active fractions were pooled, concentrated and further purified by gel filtration chromatography on a Superdex 75 prep grade gel filtration column (GE Healthcare, Piscataway, N.J.) pre-equilibrated in 50 mM Hepes pH 7.5, 150 mM NaCl. Active fractions were pooled concentrated, quantitated by BCA protein determination (Thermo Scientific, Rockford, Ill.), dialyzed into PBS and frozen at −80° C. in 20% glycerol until use.
An equal volume of diluted enzyme stock was added, and the plates were incubated at 37° C. for 15 min. Nitrocefin was used as substrate for p99 AmpC, VIM-2 and OXA-1 and dispensed into each well at a final concentration of 100 μM. Absorbance at 486 nm was immediately monitored for 10 min using a Biotek Powerwave XS2 microplate spectrophotometer using the GEN5 software package (Biotek Instruments, Winooski Vt.). In an analogous fashion, imipenem was used as substrate for Kpc-2 and Cefotaxime was used for SHV-5, while changes in absorbance upon hydrolysis of the β-lactam ring were monitored at 300 nm and 260 nm respectively in UV-transparent 96-well microtiter assay plates. Maximum rates of hydrolysis were compared to those in control wells (without inhibitors), and percentages of enzyme inhibition were calculated for each concentration of inhibitor. The concentration of inhibitor needed to reduce the initial rate of hydrolysis of substrate by 50% (IC50) was calculated as the residual activity of β-lactamase at 486 nm using GraFit version 7 kinetics software package (Erithacus Software, Surrey, UK).
Using the methodology described above, examples of the current invention were evaluated for their ability to inhibit β-lactamase enzymes from all four Ambler classifications (A through D). […] NT=Not tested.

In test [7] the target is T4, VIM-2 (Escherichia coli, UniProt Q5U7L7).
T4 construct: made in house; host or cells: E. coli BL21 (DE3)
The experiment in a line: β-Lactamase inhibition, VIM-2 (nitrocefin substrate). It counts as biochemical. On the procedure:
as §2, with “use. […]” for “use.”
as §3

Test [8] concerns K.P. 156319 KPC-3. The experiment in a line: Broth microdilution MIC, K. pneumoniae 156319. It counts as cell-based.
Test [9] concerns E. coli ESBL4 CTX-M-15. The test can be described thus: Broth microdilution MIC, E. coli ESBL4. The format is cell-based. The following applies: fixed ceftazidime 4 μg/mL, CAMHB, 16-20 hours 37° C. In short, it runs like this:
as §1

Test [10] concerns the target T5, KPC-2 (Klebsiella pneumoniae, UniProt Q9F663).
T5 construct: made in house; host or cells: E. coli BL21 (DE3)
The experiment in a line: β-Lactamase inhibition, KPC-2 (imipenem substrate). It counts as biochemical. As to the method: as §2, §3

For test [11], the system named is K.P. A-1797 KPC-2 VIM-4. The experiment in a line: Broth microdilution MIC, K. pneumoniae A-1797. As to conditions: Klebsiella pneumoniae; partner antibiotic alone, K. pneumoniae expressing KPC-2 and VIM-4. The format is cell-based.
The subject of test [12] is S. aureus MSSA-7 PC-1. The test can be described thus: Broth microdilution MIC, S. aureus MSSA-7. It counts as cell-based. As to conditions: Staphylococcus aureus, partner antibiotic alone, S. aureus producing Class A penicillinase PC-1.

pIC50: −log10 of the molar value. Converted amounts (≈) assume the structure as drawn.

T5 sequence (Q9F663 25-293 limits assumed): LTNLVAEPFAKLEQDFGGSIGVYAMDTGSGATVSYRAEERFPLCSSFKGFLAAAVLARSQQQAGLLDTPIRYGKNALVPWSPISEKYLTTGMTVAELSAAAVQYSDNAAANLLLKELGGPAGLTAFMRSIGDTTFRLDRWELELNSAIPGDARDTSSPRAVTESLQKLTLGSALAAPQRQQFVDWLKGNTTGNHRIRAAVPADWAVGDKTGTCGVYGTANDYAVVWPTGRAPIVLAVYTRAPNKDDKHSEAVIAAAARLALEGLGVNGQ
T3 sequence (P05364 21-381): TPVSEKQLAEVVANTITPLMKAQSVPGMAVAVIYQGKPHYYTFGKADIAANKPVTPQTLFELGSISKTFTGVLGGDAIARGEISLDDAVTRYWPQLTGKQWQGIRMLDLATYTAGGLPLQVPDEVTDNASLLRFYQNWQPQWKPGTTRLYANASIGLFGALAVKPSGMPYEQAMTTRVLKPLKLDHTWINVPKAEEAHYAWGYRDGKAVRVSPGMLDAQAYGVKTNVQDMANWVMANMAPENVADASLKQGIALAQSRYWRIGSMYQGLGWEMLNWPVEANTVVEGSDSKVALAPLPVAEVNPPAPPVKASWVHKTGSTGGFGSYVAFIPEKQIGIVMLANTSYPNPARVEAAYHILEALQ

Usually pIC50 stands for the negative decadic logarithm of the IC50, by convention in mol/L. Lower therefore signals a large IC50. In the case of `N[C@@H]1CC[C@@H](C(=O)N[C@H]2Cc3cccc(C(=O)O)c3OB2O)C[C@H]1N` (mixture of isomers) [Example 20, (3R)-3-[[(1S,3S,4S)-3,4-diaminocyclohexanecarbonyl]amino]-2-hydroxy-3,4-dihydro-1,2-benzoxaborinine-8-carboxylic acid and (3R)-3-[[(1R,3R,4R)-3,4-diaminocyclohexanecarbonyl]amino]-2-hydroxy-3,4-dihydro-1,2-benzoxaborinine-8-carboxylic acid], the “MIC of exemplary compounds in presence of fixed β-lactams, Fixed Mero, P. aerug. Ps296 VIM-2” value in [1] is reported as “C (C represents the MIC in the presence of <4 μg/mL of a β-lactamase inhibitor of exemplary compounds)”. Moreover, the pIC50 in test [2] was 5.00 to 6.00; in [3] it was 6.00 to 7.00; in test [6] it was greater than 7.00; in test [7], greater than 7.00; in test [10] it was 6.00 to 7.00. In [4], the “MIC of exemplary compounds in presence of fixed β-lactams, Fixed Mero, K.P. A-1797 KPC-2 VIM-4” value is “B (B represents the MIC in the presence of between 8 and 32 μg/mL of a β-lactamase inhibitor of exemplary compounds)”. Further, the “MIC of exemplary compounds in presence of fixed β-lactams, Fixed CAZ, E. cl 144200 p99 AmpC” value in [5] is “C (C represents the MIC in the presence of <4 μg/mL of a β-lactamase inhibitor of exemplary compounds)”. Besides, in [8] (fixed meropenem 4 μg/mL, CAMHB, 16-20 hours 37° C.), the “MIC of exemplary compounds in presence of fixed β-lactams, Fixed Mero, K.P. 156319 KPC-3” value is “C (C represents the MIC in the presence of <4 μg/mL of a β-lactamase inhibitor of exemplary compounds)”. In addition, the “MIC of exemplary compounds in presence of fixed β-lactams, Fixed CAZ, E. coli ESBL4 CTX-M-15” value in test [9] is reported as “C (C represents the MIC in the presence of <4 μg/mL of a β-lactamase inhibitor of exemplary compounds)”.

Usually MIC stands for the lowest concentration that inhibits growth of the organism. As to `C[C@@H](O)[C@H]1C(=O)N2C(C(=O)O)=C(S[C@@H]3CN[C@H](C(=O)N(C)C)C3)[C@H](C)[C@H]12` [Meropenem, reference compound], the MIC in test [11] was 64 µg/mL (≈ 167 µM); in test [8] (Klebsiella pneumoniae, read-out: MIC alone) it was greater than 128 µg/mL.

The molecule `CCN1CCN(C(=O)N[C@@H](C(=O)N[C@@H]2C(=O)N3[C@@H]2SC(C)(C)[C@@H]3C(=O)O)c2ccccc2)C(=O)C1=O` [Piperacillin] gave an MIC in test [12] of 64 µg/mL (≈ 124 µM).
